{
  "source": "patent US4217345A",
  "about": "“3-0-(β-D-Glucuronopyranosyl)-soyasapogenol B” (Otsuka Pharmaceutical Co., Ltd., priority 1978, dated 1980)",
  "key": {"complement": {"system": "complement", "test": "Anticomplementary activity: inhibition of hemolysis of sensitized erythrocytes (EA)", "type": "biochemical, guinea pig", "details": "for Anticomplementary Activity (50% hemolysis inhibitory activity value): guinea pig complement serum diluted 150 times, 60 minutes", "description": "The anticomplementary activity of the test compounds above was measured and confirmed by the testing method described in Meneki Kagaku (Immuno-Chemistry), Yuichi Yamamura et al., Ed. Asakura Shoten, Tokyo, Japan (1973) pages 830-834. Specifically, a test tube was charged with 0.5 ml of an aqueous dispersion of each of the test compounds, 0.5 ml of sensitized erythrocytes (EA) containing 1×10^8 cells/ml, 1 ml of a 5-fold diluted solution of a Veronal buffer solution containing isotonic gelatin (This 5-fold diluted solution is termed GVB^++ for brevity), and 0.5 ml of complement serum (guinea pig complement) diluted 150 times with the GVB^++. The mixture was maintained for 60 minutes. Then, 5 ml of an ice-fold physiological saline solution was added thereto and the mixture was centrifuged."}, "mice": {"system": "mice", "test": "Acute toxicity (LD50) in mice", "type": "in vivo", "details": "intraperitoneal administration", "description": "(§1) The actute toxicity (LD50 mg/kg) of the test compounds was determined on mice by intraperitoneal administration in the case of Compound A and intravenous administration in the case of Compound B."}, "[1]": {"system": "Nephrotoxin-Type Nephritis", "test": "Therapeutic effect on nephrotoxin-type nephritis: proteinuria level", "type": "in vivo, male Wistar rats", "details": "for Proteinuria Level, Average: 3 mg/body i.p. for seven days; for Proteinuria Level: 3 mg/body i.p. once every 24 hours for seven days, individual rat, listed as Compound of Invention", "description": "Rat nephrotoxin (\"NT\" for brevity) was obtained as described below.\nRat kidney cortex was homogenized with an equal quantity of physiological saline. The homogenized mixture was mixed with Freund's complete adjuvant (a product of Difco Company) in a volume ratio of 1:1. 2 ml of the resulting mixture was intramuscularly injected into a rabbit (body weight 3,100 g) to immunize the rabbit. A month and a half later, blood was taken from the heart of the rabbit and serum was obtained. The resulting serum was inactivated at 56° C. for 30 minutes, then salted out with a 40% saturated aqueous solution of ammonium sulfate, and fractionated. The γ-globulin (IgG) fraction was collected to obtain NT.\nThe therapeutic evaluation was carried out using male Wistar rats with a body weight of 150 to 160 g with three replications for each test compound. The test compound was intraperitoneally administered once every 24 hours for seven days. One hour after the administration of the test compound on the third day, the NT was applied. The NT was intravenously injected in an amount of 1 ml at a tail vein of each rat. Physiological saline solution was used as a control.\nThe proteinuria level (total amount excreted into the urine over a 24 hour period) was measured using turbidometry employing bovine serum albumin as a control by means of sulfosalicylic acid."}, "Heymann-Type Nephritis": {"system": "Heymann-Type Nephritis", "test": "Therapeutic effects on Heymann-type nephritis: proteinuria level", "type": "in vivo, Male Wistar rats", "details": "for Proteinuria Level: individual rat, listed as Compound of Invention", "description": "Male Wistar rats with a body weight of 180 to 200 g were used in the test. Rat kidney cortex was extracted, and homogenized with an equal quantity by volume of a physiological saline solution. The homogenate was centrifuged at 1,500 G for 1 hour. The supernatant liquid was purified in accordance with the method of T. S. Edgington et al., Journal of Experimental Medicine, 127, 555 (1968), and mixed with Freund's complete adjuvant 37 Ra (a product of Difco Company) in a volume ratio of 0.4:1. The resulting mixture was injected intraperitoneally into isologous rats in an amount of 0.5 ml per rat. And then the same amount of its mixture was administered every 2 weeks until the proteinuria level exceeded 100 mg/day. (This period was about 6 to 8 weeks.)\nEach of the test compounds was intraperitoneally administered to the rats affected with Heymann-type nephritis (with a body weight of 300 to 350 g) once a day for 7 days, and then the amount of proteinuria (mg/day) was measured in the same manner as described above. Physiological saline solution was used as a control."}, "[2]": {"test": "Acute toxicity (LD50) in mice", "type": "in vivo", "details": "mouse, in vivo, intravenous administration", "description": "as §1"}, "plasmin": {"system": "plasmin", "details": "cited from earlier work"}, "urokinase": {"system": "urokinase", "details": "cited from earlier work"}, "Kallikrein": {"system": "Kallikrein", "details": "cited from earlier work"}, "thrombin": {"system": "thrombin", "details": "cited from earlier work"}, "complements": {"system": "complements", "details": "cited from earlier work"}, "[3]": {"system": "hereditary angioneurotic edema", "details": "known complement inhibitors; cited from earlier work"}},
  "note": "Values joined by “and” are separate entries in the source; they are usually repeats but may differ in a detail not shown here. Identical values can stand only once.",
  "data": [
    {"smiles": "CC1(C)C[C@@H](O)[C@]2(C)CC[C@]3(C)C(=CC[C@@H]4[C@@]5(C)CC[C@H](O[C@@H]6O[C@H](C(=O)O)[C@@H](O)[C@H](O)[C@H]6O)[C@@](C)(CO)[C@@H]5CC[C@]43C)[C@@H]2C1", "note": "[Compound A, 3-O-(β-D-glucuronopyranosyl)-soyasapogenol B]", "values": [
      {"measurement": "anticomplementary activity (in words)", "setting": "complement", "result": "potent anticomplementary activity"},
      {"measurement": "Anticomplementary Activity (50% hemolysis inhibitory activity value)", "setting": "complement", "result": 5, "unit": "µg/mL"},
      {"measurement": "Acute Toxicity LD50", "setting": "mice", "result": "Above 300 mg/kg"},
      {"measurement": "Proteinuria Level, Average", "setting": "[1]; Day 1, average of 3 rats (control 15)", "result": 3.2, "unit": "mg/day"},
      {"measurement": "Proteinuria Level", "setting": "[1]; Day 1", "result": "1.9 mg/day and 5.3 mg/day and 2.5 mg/day"},
      {"measurement": "Proteinuria Level, Average", "setting": "[1]; Day 4, average of 3 rats (control 20)", "result": 2.3, "unit": "mg/day"},
      {"measurement": "Proteinuria Level", "setting": "[1]; Day 4", "result": "1.2 mg/day and 2.9 mg/day and 2.7 mg/day"},
      {"measurement": "Proteinuria Level, Average", "setting": "[1]; Day 7, average of 3 rats (control 23)", "result": 1.3, "unit": "mg/day"},
      {"measurement": "Proteinuria Level", "setting": "[1]; Day 7", "result": "0.9 mg/day and 1.8 mg/day and 1.1 mg/day"},
      {"measurement": "Proteinuria Level, Average", "setting": "[1]; Day 10, average of 3 rats (control 33)", "result": 9.7, "unit": "mg/day"},
      {"measurement": "Proteinuria Level", "setting": "[1]; Day 10", "result": "7 mg/day and 13 mg/day and 9 mg/day"},
      {"measurement": "Proteinuria Level, Average", "setting": "Heymann-Type Nephritis; Before Administration, 3 mg/body i.p. group, average of 3 rats (control 129)", "result": 123, "unit": "mg/day"},
      {"measurement": "Proteinuria Level", "setting": "Heymann-Type Nephritis; Before Administration, 3 mg/body i.p. group", "result": "117 mg/day and 129 mg/day and 123 mg/day"},
      {"measurement": "Proteinuria Level, Average", "setting": "Heymann-Type Nephritis; Day 1, 3 mg/body i.p. once a day for 7 days, average of 3 rats (control 116)", "result": 112, "unit": "mg/day"},
      {"measurement": "Proteinuria Level", "setting": "Heymann-Type Nephritis; Day 1, 3 mg/body i.p. once a day for 7 days", "result": "89 mg/day and 127 mg/day and 119 mg/day"},
      {"measurement": "Proteinuria Level, Average", "setting": "Heymann-Type Nephritis; Day 4, 3 mg/body i.p. once a day for 7 days, average of 3 rats (control 131)", "result": 58, "unit": "mg/day"},
      {"measurement": "Proteinuria Level", "setting": "Heymann-Type Nephritis; Day 4, 3 mg/body i.p. once a day for 7 days", "result": "42 mg/day and 75 mg/day and 58 mg/day"},
      {"measurement": "Proteinuria Level, Average", "setting": "Heymann-Type Nephritis; Day 7, 3 mg/body i.p. once a day for 7 days, average of 3 rats (control 122)", "result": 28, "unit": "mg/day"},
      {"measurement": "Proteinuria Level", "setting": "Heymann-Type Nephritis; Day 7, 3 mg/body i.p. once a day for 7 days", "result": "27 mg/day and 39 mg/day and 18 mg/day"},
      {"measurement": "Proteinuria Level, Average", "setting": "Heymann-Type Nephritis; Day 14, 3 mg/body i.p. once a day for 7 days, average of 3 rats (control 119)", "result": 3, "unit": "mg/day"},
      {"measurement": "Proteinuria Level", "setting": "Heymann-Type Nephritis; Day 14, 3 mg/body i.p. once a day for 7 days", "result": "3 mg/day and 17 mg/day and 9 mg/day"},
      {"measurement": "Proteinuria Level, Average", "setting": "Heymann-Type Nephritis; Day 21, 3 mg/body i.p. once a day for 7 days, average of 3 rats (control 109)", "result": 9, "unit": "mg/day"},
      {"measurement": "Proteinuria Level", "setting": "Heymann-Type Nephritis; Day 21, 3 mg/body i.p. once a day for 7 days", "result": "8 mg/day and 13 mg/day and 7 mg/day"}
    ]},
    {"smiles": "CC1(C)[C@@H](O[C@H]2O[C@H](C(=O)O)[C@@H](O)[C@H](O)[C@H]2O[C@@H]2O[C@H](C(=O)O)[C@@H](O)[C@H](O)[C@H]2O)CC[C@]2(C)[C@H]3C(=O)C=C4[C@@H]5C[C@@](C)(C(=O)O)CC[C@]5(C)CC[C@@]4(C)[C@]3(C)CC[C@@H]12", "note": "[Compound B, Glycyrrhizin]", "values": [
      {"measurement": "Anticomplementary Activity (50% hemolysis inhibitory activity value)", "setting": "complement", "result": "500-1,000 γ/ml"},
      {"measurement": "LD50", "setting": "[2]", "result": "> 300", "unit": "mg/kg"},
      {"measurement": "inhibitory activity against plasmin", "setting": "plasmin", "result": "inhibitory activity"},
      {"measurement": "inhibitory activity against urokinase", "setting": "urokinase", "result": "inhibitory activity"},
      {"measurement": "inhibitory activity against Kallikrein", "setting": "Kallikrein", "result": "inhibitory activity"},
      {"measurement": "inhibitory activity against thrombin", "setting": "thrombin", "result": "inhibitory activity"},
      {"measurement": "inhibitory activity against complements", "setting": "complements", "result": "inhibitory activity"}
    ]},
    {"smiles": "Cc1ccc(C(=O)Nc2ccc(S(=O)(=O)O)c3cc(S(=O)(=O)O)cc(S(=O)(=O)O)c23)cc1NC(=O)c1cccc(NC(=O)Nc2cccc(C(=O)Nc3cc(C(=O)Nc4ccc(S(=O)(=O)O)c5cc(S(=O)(=O)O)cc(S(=O)(=O)O)c45)ccc3C)c2)c1", "note": "[Suramin Sodium]", "values": [
      {"measurement": "use in the treatment of hereditary angioneurotic edema", "setting": "[3]", "result": "used with success"}
    ]},
    {"smiles": "NCCCCCC(=O)O", "note": "[epsilon-aminocaproic acid]", "values": [
      {"measurement": "use in the treatment of hereditary angioneurotic edema", "setting": "[3]", "result": "used with success"}
    ]},
    {"smiles": "NC[C@H]1CC[C@H](C(=O)O)CC1", "note": "[tranexamic acid]", "values": [
      {"measurement": "use in the treatment of hereditary angioneurotic edema", "setting": "[3]", "result": "used with success"}
    ]}
  ]
}
